Test results: US20040186066A1, “Method of treatment with nelfinavir” (AGOURON PHARMACEUTICALS, INC., priority 2003, published 2004)
Marks after values point to notes of the source that are not given here.

Tests used:
[1] = Example 1: phase I crossover food-effect study, single-dose pharmacokinetics of nelfinavir 250 mg tablets (total kilocalories and fat); assay type: in vivo, human (normal healthy volunteers); settings: for bioavailability of M8 higher relative to fasting, based on AUC(0-∞): M8 after 1250 mg nelfinavir
Description: A phase I, randomized, open-label crossover study to evaluate the impact of total kilocalories and fat content on single-dose pharmacokinetic parameters of the nelfinavir 250 mg tablet formulation in normal healthy volunteers was performed. Healthy volunteers entered the study and received the following treatment in random order at least 1 week apart: 1) 5×250 mg nelfinavir tablets, fasted 2) 5×250 mg nelfinavir tablets (breakfast meal 1, 125 Kcal/20% fat=low cal/low fat) 3) 5×250 mg nelfinavir tablets (breakfast meal 2, 500 Kcal/20% fat=medium cal/low fat) 4) 5×250 mg nelfinavir tablets (breakfast meal 3, 1000 Kcal/50% fat=high cal/high fat). Plasma concentrations of nelfinavir and its active hydroxy-t-butylamide metabolite (M8) were measured by validated high performance liquid chromatography (HPLC) methods. Pharmacokinetic parameters were determined from plasma concentration-time data using standard methods. Nelfinavir was administered as five 250-mg tablets with 240 mL of water. All subjects received a standardized snack the evening they were admitted to the in-patient facility. For the fasting evaluation, subjects were required to complete an overnight fast of at least 10 hours prior to dosing in the morning. For the fed pharmacokinetic evaluations, subjects were required to complete an overnight fast of at least 10 hours, prior to receiving the protocol-specific standardized breakfast meal (that is, Meal 1, Meal 2, or Meal 3). Subjects were given 30 minutes to complete their standardized breakfast meal. Dosing was performed in the morning, immediately following the subject's completion of the standardized breakfast meal and after the subject's pre-dose pharmacokinetic specimen had been collected. Subjects could not ingest water 1 hour prior to or 1 hour after dosing. A standardized lunch was given at least 4 hours after the morning dose and a standardized dinner was given at least 10 hours after the morning dose. For pharmacokinetic sampling, blood samples, 5 mL each, were collected into heparinized vacuum tubes (green top tubes) via an indwelling catheter or direct venipuncture. The actual time of each collection was recorded on the source document. The timing of each sample collection was as follows: predose and at 0.5, 1, 2, 3, 4, 6, 8, and 12 hours postdose on Days 1, 8,15, and 22. Pharmacokinetic parameter values were calculated using WinNonlin Pro Version 2.1. Individual nelfinavir plasma concentrations were used to predict steady-state plasma concentrations during BID administration with meals of various Kcal content. WinNonlin Pro Version 3.2 noncompartmental superposition was used for this simulation. Predicted steady-state Cmax and Cmin values were compared.

[2] = Example 2: phase 1 crossover 3×3 study, fixed kilocalorie meal at 20% and 50% fat, single-dose pharmacokinetics of nelfinavir 250 mg tablets; assay type: in vivo, human (normal, healthy volunteers)
Description: A study was conducted as a phase 1, randomized, open-label, crossover 3×3 study, designed to evaluate the impact of a fixed kilocalorie meal at 20% and 50% fat content on single-dose pharmacokinetic parameters of the nelfinavir 250 mg tablet formulation in normal, healthy volunteers. Subjects were dosed with 1250 mg of nelfinavir 3 times at one-week intervals and 24-hour PK profiles were collected following each of the doses. Each subject was assigned three meals with different fat contents prior to dosing (fasting, 500kcal with 20% fat, 500 kcal with 50% fat) using a Latin square design. Twenty-four subjects entered the study and twenty-two subjects completed it. Each subject received the following treatment in random order on Days 1, 8 and 15: 5×250 mg nelfinavir tablets with fasting; 5×250 mg nelfinavir tablets, with a meal comprising 500Kcal/20% fat; and 5×250 mg nelfinavir tablets with a meal having 500 Kcal/50% fat. The moderate calorie/low fat meal consisted of 500 Kcal with 20% fat (11.3 grams of fat). The moderate calorie/high fat meal consisted of 500 Kcal with 50% fat (27.8 grams of fat). Subjects were administered nelfinavir 1250-mg (five 250-mg tablets) on the morning of the pharmacokinetic evaluations. The nelfinavir terminal half-life (t½) in plasma is typically 3.5 to 5 hours. […] Subjects participated on an outpatient basis; however, subjects were admitted to the in-patient facility the evening prior to each PK evaluation and remained in the in-patient facility for approximately 16 hours post-dosing. The subjects returned the next morning (8 hours later) for their last 24 hr. pharmacokinetic blood draw. All pharmacokinetic evaluations were performed in the in-patient facility. Blood samples were collected and analyzed for plasma concentrations of nelfinavir and M8. For the fasting evaluation, subjects were required to complete an overnight fast of at least 10 hours prior to dosing in the morning. For the fed PK evaluations, subjects were required to complete an overnight fast of at least 10 hours, prior to receiving the protocol-specific standardized breakfast meal. Subjects were given 30 minutes to complete their standardized breakfast meal. Dosing was performed in the morning, immediately following the subject's completion of the standardized breakfast meal and after the subject's predose PK specimen had been collected. Subjects could not ingest water 1 hour prior to or 1 hour after dosing. A standardized lunch was given at least 4 hours after the morning dose and a standardized dinner was given at least 10 hours after the morning dose. Actual sampling times were used for all data evaluation. Mean Cmax and AUC values were calculated as the antilogs of least-squares mean log-transformed values (analogous to geometric means). Ratios and confidence intervals for Cmax and AUC values are also based on log-transformed values. Mean values for all other pharmacokinetic parameters are least-squares means. Ratios and confidence intervals for these parameters are based on untransformed values. Blood samples, 5 mL each, were collected as in Example 1. The timing of each sample collection was as follows: Predose and at 0.5, 1, 2, 3, 4, 6, 8, 12, 16 and 24 hours postdose on Days 1, 8, and 15. All blood samples were kept at […] (using either wet ice or cryoblock) until centrifugation. Blood samples were centrifuged within 1 hour of collection, at 3000 rpm (approximately 2619×g) for 15 minutes, to separate the plasma. The plasma samples were split evenly into 2 aliquots and stored in appropriately labeled polypropylene transport tubes. Plasma was stored frozen at […] or lower until analysis. Pharmacokinetic parameter values were calculated from plasma nelfinavir and M8 concentration-time data using standard noncompartmental pharmacokinetic methods as in Example 1. Plasma concentrations of nelfinavir and M8 were measured by validated high-performance liquid chromatography (HPLC) methods. […]

[3] = with increasing food intake; cited from earlier work
[4] = M8 after 1250-mg nelfinavir oral dose, fasting (reference)
[5] = M8 after 1250-mg nelfinavir with high calorie/high fat/high protein meal
[6] = M8 after 1250-mg nelfinavir with low calorie/low fat/low protein meal
[7] = M8 after 1250-mg nelfinavir with moderate calorie/low fat/moderate protein meal
[8] = high calorie/high fat/high protein meal vs fasting
[9] = low calorie/low fat/low protein meal vs fasting
[10] = moderate calorie/low fat/moderate protein meal vs fasting

M8 AUCinf/NFV AUCinf (%) ([1]; 1250 mg nelfinavir single oral dose, fasting): 26.5% | bioavailability of M8 higher relative to fasting, based on AUC(0-∞) ([1]; high calorie meal (1000 Kcal)): 4.1 fold | bioavailability of M8 higher relative to fasting, based on AUC(0-∞) ([1]; low calorie meal (125 Kcal)): 1.3 fold | bioavailability of M8 higher relative to fasting, based on AUC(0-∞) ([1]; moderate calorie meal (500 Kcal)): 1.8 fold | M8 AUC(0-tlqc), least-squares mean [1, 4]: 0.655^a μg · hr/mL | M8 AUC(0-∞), least-squares mean [1, 4]: 2.81^c μg · hr/mL | M8 t1/2, least-squares mean [1, 4]: 2.68^c hr | M8 tmax, least-squares mean [1, 4]: 3.45^b hr | M8 AUC(0-tlqc), least-squares mean [1, 5]: 7.58^g μg · hr/mL | M8 AUC(0-∞), least-squares mean [1, 5]: 11.5^a μg · hr/mL | M8 Cmax, least-squares mean [1, 5]: 1.28^g μg/mL | M8 t1/2, least-squares mean [1, 5]: 3.90^a hr | M8 tmax, least-squares mean [1, 5]: 5.01^a hr | M8 AUC(0-tlqc), least-squares mean [1, 6]: 2.01^d μg · hr/mL | M8 AUC(0-∞), least-squares mean [1, 6]: 3.66^f μg · hr/mL | M8 Cmax, least-squares mean [1, 6]: 0.533^d μg/mL | M8 t1/2, least-squares mean [1, 6]: 2.40^f hr | M8 tmax, least-squares mean [1, 6]: 3.88^e hr | M8 AUC(0-tlqc), least-squares mean [1, 7]: 3.46^a μg · hr/mL | M8 AUC(0-∞), least-squares mean [1, 7]: 5.11^e μg · hr/mL | M8 Cmax, least-squares mean [1, 7]: 0.693^a μg/mL | M8 t1/2, least-squares mean [1, 7]: 2.96^e hr | M8 tmax, least-squares mean [1, 7]: 4.49^a hr | M8 Cmax, least-squares mean ([1]; M8 in plasma after 1250-mg nelfinavir oral dose, fasting (reference)): 0.228^a μg/mL | M8 AUC/nelfinavir AUC ([1]; fed state): 15-21% | M8 AUCinf/NFV AUCinf (%) ([1]; food intake 125 kcal/20% fat): 15.8% | M8 AUCinf/NFV AUCinf (%) ([1]; food intake 500 kcal/20% fat): 15.3% | M8 AUCinf/NFV AUCinf (%) ([1]; food intake 1000 kcal/50% fat): 20.8% | M8 AUC(0-tlqc) ratio (100% × test/reference) [1, 8]: 1157% | M8 AUC(0-∞) ratio (100% × test/reference) [1, 8]: 408% | M8 Cmax ratio (100% × test/reference) [1, 8]: 562% | M8 t1/2 ratio (100% × test/reference) [1, 8]: 145% | M8 tmax ratio (100% × test/reference) [1, 8]: 145% | M8 AUC(0-tlqc) ratio (100% × test/reference) [1, 9]: 343% | M8 AUC(0-∞) ratio (100% × test/reference) [1, 9]: 130% | M8 Cmax ratio (100% × test/reference) [1, 9]: 234% | M8 t1/2 ratio (100% × test/reference) [1, 9]: 89.4% | M8 tmax ratio (100% × test/reference) [1, 9]: 113% | M8 AUC(0-tlqc) ratio (100% × test/reference) [1, 10]: 529% | M8 AUC(0-∞) ratio (100% × test/reference) [1, 10]: 182% | M8 Cmax ratio (100% × test/reference) [1, 10]: 304% | M8 t1/2 ratio (100% × test/reference) [1, 10]: 110% | M8 tmax ratio (100% × test/reference) [1, 10]: 130% | M8 AUC∞/Nelfinavir AUC∞(%) ([2]; 1250 mg nelfinavir single dose, fasting): 8.6% | M8 AUC∞/Nelfinavir AUC∞(%) ([2]; Kcal/Fat % 500/20%): 8.7% | M8 AUC∞/Nelfinavir AUC∞(%) ([2]; Kcal/Fat % 500/50%): 11.4% | mean M8 AUC(0-∞) higher relative to fasting subjects ([2]; test meal containing 20% fat): 3 fold | mean M8 AUC(0-∞) higher relative to fasting subjects ([2]; test meal containing 50% fat): 6.8 fold | percentage of M8 relative to nelfinavir ([2]; remained the same with increasing fat intake): around 10%
SMILES: Cc1c(O)cccc1C(=O)N[C@@H](CSc1ccccc1)[C@H](O)CN1C[C@H]2CCCC[C@H]2C[C@H]1C(=O)NC(C)(C)CO [M8]
M8 concentrations relative to nelfinavir [3]: 15-20%
